Measurements reported in ChEMBL document CHEMBL4325845, “Tau Tubulin Kinase 1 (TTBK1), a new player in the fight against neurodegenerative diseases” (Eur J Med Chem, 2019).

How the values were obtained:
Tau-tubulin kinase 1 [1] = target: T1, Tau-tubulin kinase 1 (Homo sapiens, UniProt Q5TCY1); assay: Binding affinity to phosphorylated TTBK1 (unknown origin) by SPR analysis
[2] = Inhibition of FTK (unknown origin); design: species or system Homo sapiens
Tau-tubulin kinase 1 [3] = target: T1, Tau-tubulin kinase 1; assay: Binding affinity to phosphorylated TTBK1 (unknown origin) assessed as association rate constant by SPR analysis

T1 sequence (Q5TCY1 whole entry): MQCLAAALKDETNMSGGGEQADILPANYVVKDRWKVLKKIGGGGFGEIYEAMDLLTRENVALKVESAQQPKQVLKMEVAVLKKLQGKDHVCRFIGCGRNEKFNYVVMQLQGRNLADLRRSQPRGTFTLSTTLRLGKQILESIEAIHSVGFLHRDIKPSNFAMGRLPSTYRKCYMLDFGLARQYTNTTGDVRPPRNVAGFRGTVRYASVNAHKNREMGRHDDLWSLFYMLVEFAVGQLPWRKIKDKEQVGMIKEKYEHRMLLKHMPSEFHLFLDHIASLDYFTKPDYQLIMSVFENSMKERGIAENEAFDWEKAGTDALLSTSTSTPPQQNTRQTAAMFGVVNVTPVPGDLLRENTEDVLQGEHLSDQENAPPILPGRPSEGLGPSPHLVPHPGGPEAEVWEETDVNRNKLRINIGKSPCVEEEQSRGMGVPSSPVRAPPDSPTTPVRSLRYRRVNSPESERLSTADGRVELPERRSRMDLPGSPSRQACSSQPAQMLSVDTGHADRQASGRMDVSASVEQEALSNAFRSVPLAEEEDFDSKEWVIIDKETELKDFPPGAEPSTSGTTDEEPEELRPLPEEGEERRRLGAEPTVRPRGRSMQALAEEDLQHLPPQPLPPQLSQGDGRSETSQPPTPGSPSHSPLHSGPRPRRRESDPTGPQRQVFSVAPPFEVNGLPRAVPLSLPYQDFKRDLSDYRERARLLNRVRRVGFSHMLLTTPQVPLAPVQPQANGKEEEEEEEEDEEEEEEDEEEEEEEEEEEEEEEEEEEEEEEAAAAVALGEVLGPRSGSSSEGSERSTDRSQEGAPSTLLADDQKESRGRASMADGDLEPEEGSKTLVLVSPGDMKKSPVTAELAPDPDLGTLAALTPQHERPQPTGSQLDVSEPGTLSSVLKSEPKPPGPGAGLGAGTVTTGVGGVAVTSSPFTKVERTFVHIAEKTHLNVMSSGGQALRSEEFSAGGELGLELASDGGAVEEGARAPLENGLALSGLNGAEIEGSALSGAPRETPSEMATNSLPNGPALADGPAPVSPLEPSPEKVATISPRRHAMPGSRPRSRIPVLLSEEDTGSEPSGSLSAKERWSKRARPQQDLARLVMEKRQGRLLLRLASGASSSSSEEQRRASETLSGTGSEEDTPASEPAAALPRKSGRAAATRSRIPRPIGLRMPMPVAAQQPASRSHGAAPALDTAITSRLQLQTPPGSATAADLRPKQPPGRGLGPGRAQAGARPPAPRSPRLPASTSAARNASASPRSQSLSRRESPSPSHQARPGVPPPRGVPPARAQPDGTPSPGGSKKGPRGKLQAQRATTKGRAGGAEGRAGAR

SMILES: COC(=O)c1cc(Nc2ncnc3[nH]ccc23)ccc1Br
- Kd (Tau-tubulin kinase 1 [1]): 4.1 µM

SMILES: COc1cc2ncnc(Nc3cccc(O)c3)c2cc1OC
- IC50 [2]: 11 µM
- K (Tau-tubulin kinase 1 [3]): 6.8 ×10⁶ /s
